In patent US7667040B2, “Azacyclic ethynyl derivatives” (Neurosearch A/S, priority 2002, dated 2010):
pIC50: −log10 of the molar value. Counter-ions that a name gives are not always drawn. Like-named read-outs stand apart in the source and are kept apart here.

Legend:
[1] = biological target: T1, α7-subtype of nicotinic receptors (Rattus norvegicus, UniProt Q05941); assay: In vitro inhibition of 3H-α-bungarotoxine binding in rat brain
T1 construct: Cerebral cortices from male Wistar rats (150-250 g) are homogenised; from tissue; host or cells: rat cerebral cortex membrane homogenate

[2] = biological target: T2, serotonin transporter (Rattus norvegicus, UniProt P31652); assay: In vitro inhibition of 3H-5-hydroxytryptamine uptake in cortical synaptosomes; format: biochemical; settings: 1 nM 3H-5-HT, 30 minutes at 37° C.
T2 construct: Cerebral cortices from male Wistar rats (150-200 g) are homogenized; from tissue; host or cells: rat cerebral cortex synaptosomes (P2 pellet)
Description: In vitro Inhibition of ^3H-5-Hydroxytryptamine Uptake in Cortical Synaptosomes
Serotonin transporters/uptake sites on nerve terminals presumably function to terminate neuronal signaling by removing serotonin from the synaptic cleft. The activity of the serotonin transporter integral protein can be measured in vitro by synaptosomal uptake of ^3H-5-hydroxytryptamine (5-HT, serotonin).
Preparations are performed at 0-4° C. Cerebral cortices from male Wistar rats (150-200 g) are homogenized for 5-10 seconds in 100 volumes of ice-cold 0.32 M sucrose containing 1 mM pargyline, using a motor driven teflon pestle in a glass homogenizing vessel. Monoamine oxidase activity is inhibited in the presence of pargyline.
The homogenate is subjected to centrifugation at 1000×g for 10 minutes. The resulting supernatant is then centrifuged at 27,000×g for 50 minutes and the supernatant is discarded. The pellet (P2) is re-suspended in oxygenated (equilibrated with an atmosphere of 96% O2: 4% CO2 for at least 30 minutes) Krebs-Ringer incubation buffer (1000 ml per g of original tissue) at pH 7.2 containing 122 mM NaCl, 0.16 mM EDTA, 4.8 mM KCl, 12.7 mM Na2HPO4, 3.0 mM NaH2PO4, 1.2 mM MgSO4, 1 mM CaCl2, 10 mM glucose and 1 mM ascorbic acid.
Aliquots of 4.0 ml tissue suspension are added to 100 μl, of test solution and 100 μl of ^3H-5-HT (1 nM, final concentration), mixed and incubated for 30 minutes at 37° C. Non-specific uptake is determined using Citalopram (1 μM, final concentration, available from Lundbeck, Denmark).
After incubation, the samples are poured directly onto Whatman GF/C glass fibre filters under suction. The filters are washed three times with 5 ml of ice-cold 0.9% (w/v) NaCl solution.
The amount of radioactivity on the filters is determined by conventional liquid scintillation counting. Specific uptake is calculated as the difference between total uptake and non-specific uptake.
25-75% inhibition of specific binding must be obtained, before calculation of an IC50.
The test value is given as IC50 (the concentration (μM) of the test substance which inhibits the specific binding of ^3H-5-HT by 50%).

[3] = rat cerebral cortex homogenate, 2 nM 3H-α-bungarotoxine, 2 hours at 37° C., read-out: Inhibition of 3H-α-Bungarotoxine Binding IC50

T1 sequence (Q05941 23-502): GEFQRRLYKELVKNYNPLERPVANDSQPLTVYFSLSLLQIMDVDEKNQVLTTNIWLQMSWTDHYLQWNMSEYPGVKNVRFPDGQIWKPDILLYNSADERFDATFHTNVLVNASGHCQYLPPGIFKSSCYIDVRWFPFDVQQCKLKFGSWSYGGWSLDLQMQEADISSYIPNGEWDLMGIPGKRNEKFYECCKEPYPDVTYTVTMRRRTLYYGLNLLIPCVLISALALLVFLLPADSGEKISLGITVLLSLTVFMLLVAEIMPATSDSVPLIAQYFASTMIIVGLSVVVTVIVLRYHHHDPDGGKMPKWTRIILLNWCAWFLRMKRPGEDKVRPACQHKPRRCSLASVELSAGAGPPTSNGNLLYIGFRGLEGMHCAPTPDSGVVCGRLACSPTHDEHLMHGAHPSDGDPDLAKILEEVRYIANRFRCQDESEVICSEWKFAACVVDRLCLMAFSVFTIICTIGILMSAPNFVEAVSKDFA
T2 sequence (P31652 whole entry): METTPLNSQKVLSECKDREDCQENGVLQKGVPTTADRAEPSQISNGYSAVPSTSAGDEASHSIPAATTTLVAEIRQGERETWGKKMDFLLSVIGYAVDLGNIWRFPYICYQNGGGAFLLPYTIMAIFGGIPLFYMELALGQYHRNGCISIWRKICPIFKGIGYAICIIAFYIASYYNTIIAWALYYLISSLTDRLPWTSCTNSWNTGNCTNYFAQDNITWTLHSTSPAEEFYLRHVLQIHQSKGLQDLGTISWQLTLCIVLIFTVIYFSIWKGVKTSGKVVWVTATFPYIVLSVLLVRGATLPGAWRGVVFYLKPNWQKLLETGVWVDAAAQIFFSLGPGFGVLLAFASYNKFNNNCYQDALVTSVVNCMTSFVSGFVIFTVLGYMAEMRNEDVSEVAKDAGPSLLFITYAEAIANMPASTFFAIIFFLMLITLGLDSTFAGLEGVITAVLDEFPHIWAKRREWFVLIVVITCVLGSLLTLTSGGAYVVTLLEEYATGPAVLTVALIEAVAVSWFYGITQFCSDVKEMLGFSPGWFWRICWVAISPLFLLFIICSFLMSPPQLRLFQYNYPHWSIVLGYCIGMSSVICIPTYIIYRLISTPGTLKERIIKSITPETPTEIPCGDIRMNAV

CN1C2C=C(C#Cc3ccccc3)CC1CC2 (racemic) [Compound 1, (±)-8-Methyl-3-phenyletynyl-8-azabicyclo[3.2.1]oct-2-ene fumaric acid salt]
pIC50 [1]: 6.49 | pIC50 [2]: 6.96

C[N+]1(C)C2C=C(C#Cc3ccccc3)CC1CC2 (racemic) [Compound B1, (±)-8,8-Dimethyl-3-phenyletynyl-8-azabicyclo[3.2.1]oct-2-ene iodide salt]
pIC50 [1, 3]: 8.70

C[N+]12C=C(C#Cc3ccccc3)C(CC1)CC2 (racemic) [Compound B2, (±)-1-Methyl-3-phenyletynyl-quinuclidin-2-ene iodide salt]
pIC50 [1, 3]: 6.22 | pIC50 [2]: 7.00

C(#Cc1ccccc1)C1=CC2CCC(C1)N2 (racemic) [Compound C1, (±)-8-H-3-Phenyletynyl-8-azabicyclo[3.2.1]oct-2-ene fumaric acid salt]
pIC50 [2]: 7.00

C(#Cc1ccccc1)C1=CN2CCC1CC2 [Compound A1, (±)-3-Phenyletynyl-quinuclidin-2-ene]
pIC50 [1, 3]: 6.74 | pIC50 [2]: 6.38
